Assay results taken from PubChem BioAssay AID248 (DTP/NCI, 2004).
Values joined by “and” are separate entries in the source; they are usually repeats but may differ in a detail not shown here. Equal entries are not always repeated. Toxic doses and inconclusive results are not listed.

System: L1210 leukemia ip in BDF1 mice, survival T/C
Test: NCI In Vivo Anticancer Drug Screen. Data for tumor model L1210 Leukemia (intraperitoneal) in B6D2F1 (BDF1) mice
Settings: endpoint: mean survival time, higher = longer survival
In short: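 Value reflects the ratio of survival in compound-treated mice to survival in vehicle-treated controls, with both groups carrying the same transplanted tumor.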

[1] = dose: 100.0 mg/kg/injection, schedule: Q04DX003 (ip), vehicle: Klucel (hydroxypropylcellulose) (HPC)
[2] = dose: 200.0 mg/kg/injection, schedule: Q04DX003 (ip), vehicle: Klucel (hydroxypropylcellulose) (HPC)
[3] = dose: 400.0 mg/kg/injection, schedule: Q04DX003 (ip), vehicle: Klucel (hydroxypropylcellulose) (HPC)
[4] = dose: 100.0 mg/kg/injection, schedule: Q01DX009 (ip), vehicle: Klucel (hydroxypropylcellulose) (HPC)
[5] = dose: 200.0 mg/kg/injection, schedule: Q01DX009 (ip), vehicle: Klucel (hydroxypropylcellulose) (HPC)
[6] = dose: 400.0 mg/kg/injection, schedule: Q01DX009 (ip), vehicle: Klucel (hydroxypropylcellulose) (HPC)
[7] = dose: 100.0 mg/kg/injection, schedule: Q01DX009 (ip), vehicle: saline with Tween-80
[8] = dose: 200.0 mg/kg/injection, schedule: Q01DX009 (ip), vehicle: saline with Tween-80
[9] = dose: 400.0 mg/kg/injection, schedule: Q01DX009 (ip), vehicle: saline with Tween-80
[10] = dose: 100.0 mg/kg/injection, schedule: Q01DX001 (ip), vehicle: Klucel (hydroxypropylcellulose) (HPC)
[11] = dose: 200.0 mg/kg/injection, schedule: Q01DX001 (ip), vehicle: Klucel (hydroxypropylcellulose) (HPC)
[12] = dose: 50.0 mg/kg/injection, schedule: Q01DX009 (ip), vehicle: saline

CCOC(=O)C1(C(C)C)OC2(O)CCCCN2C1=O (stereo not given)
T/C (dose: 12.5 mg/kg/injection, schedule: Q04DX003 (ip), vehicle: alcohol): 106 % of control | T/C (dose: 25.0 mg/kg/injection, schedule: Q04DX003 (ip), vehicle: alcohol): 104 % of control | T/C (dose: 50.0 mg/kg/injection, schedule: Q04DX003 (ip), vehicle: alcohol): 113 % of control | T/C (dose: 100.0 mg/kg/injection, schedule: Q04DX003 (ip), vehicle: alcohol): 101 % of control

O=[N+]([O-])c1cccc(S/N=C/c2ccccc2)c1
T/C [1]: 100 % of control | T/C [2]: 95 % of control | T/C [3]: 105 % of control

CC1(C)SC(C)(C)C1=O
T/C (dose: 50.0 mg/kg/injection, schedule: Q04DX002 (ip), vehicle: gum acacia): 100 % of control | T/C (dose: 100.0 mg/kg/injection, schedule: Q04DX002 (ip), vehicle: gum acacia): 96 % of control | T/C (dose: 200.0 mg/kg/injection, schedule: Q04DX002 (ip), vehicle: gum acacia): 107 % of control

COc1ccc(N2C(=O)C3C(C2=O)C2c4ccccc4C3C3CCCCN32)cc1 (stereo not given)
T/C (dose: 75.0 mg/kg/injection, schedule: Q01DX001 (ip), vehicle: other): 103 % of control

Nc1nc(N)c2nnsc2n1
T/C (dose: 100.0 mg/kg/injection, schedule: Q01DX001 (ip), vehicle: saline with Tween-80): 101 % of control | T/C (dose: 200.0 mg/kg/injection, schedule: Q01DX001 (ip), vehicle: saline with Tween-80): 96 % of control | T/C (dose: 400.0 mg/kg/injection, schedule: Q01DX001 (ip), vehicle: saline with Tween-80): 90 % of control

O=Cc1ccc(N2CCOCC2)cc1
T/C (dose: 50.0 mg/kg/injection, schedule: Q01DX009 (ip), vehicle: Klucel (hydroxypropylcellulose) (HPC)): 97 % of control | T/C [4]: 97 % of control | T/C [5]: 106 % of control | T/C [6]: 97 % of control

CC(=O)NC1CCC(S(=O)(=O)N2N=NC3CCCCC32)CC1 (stereo not given)
T/C [7]: 98 % of control | T/C [8]: 93 % of control | T/C [9]: 92 % of control

O=c1ccc2ccccc2n1Cc1ccc2ccccc2n1
T/C (dose: 12.5 mg/kg/injection, schedule: Q01DX001 (ip), vehicle: acetone): 100 % of control | T/C (dose: 12.5 mg/kg/injection, schedule: Q04DX003 (ip), vehicle: saline): 96 % of control | T/C (dose: 25.0 mg/kg/injection, schedule: Q01DX001 (ip), vehicle: acetone): 92 % of control | T/C (dose: 25.0 mg/kg/injection, schedule: Q04DX003 (ip), vehicle: saline): 91 % of control | T/C (dose: 50.0 mg/kg/injection, schedule: Q01DX001 (ip), vehicle: acetone): 95 % of control | T/C (dose: 50.0 mg/kg/injection, schedule: Q04DX003 (ip), vehicle: saline): 96 % of control | T/C (dose: 75.0 mg/kg/injection, schedule: Q04DX003 (ip), vehicle: saline): 95 % of control | T/C (dose: 100.0 mg/kg/injection, schedule: Q01DX001 (ip), vehicle: other): 97 % of control | T/C [7]: 104 % of control | T/C (dose: 100.0 mg/kg/injection, schedule: Q04DX003 (ip), vehicle: other): 109 % of control | T/C (dose: 115.0 mg/kg/injection, schedule: Q04DX003 (ip), vehicle: saline): 90 % of control | T/C (dose: 200.0 mg/kg/injection, schedule: Q01DX001 (ip), vehicle: other): 100 % of control | T/C [8]: 95 % of control | T/C (dose: 200.0 mg/kg/injection, schedule: Q04DX003 (ip), vehicle: other): 104 % of control | T/C (dose: 400.0 mg/kg/injection, schedule: Q01DX001 (ip), vehicle: other): 94 % of control | T/C [9]: 101 % of control | T/C (dose: 400.0 mg/kg/injection, schedule: Q04DX003 (ip), vehicle: other): 104 % of control

CCCCCCCC(=O)CCCC
T/C [4]: 101 % of control | T/C [1]: 103 % of control | T/C [5]: 98 % of control | T/C [2]: 101 % of control | T/C [6]: 102 % of control | T/C [3]: 101 % of control

ClC(Cl)C1OCCOCCO1
T/C (dose: 100.0 mg/kg/injection, schedule: Q04DX002 (ip), vehicle: Klucel (hydroxypropylcellulose) (HPC)): 97 % of control | T/C (dose: 200.0 mg/kg/injection, schedule: Q04DX002 (ip), vehicle: Klucel (hydroxypropylcellulose) (HPC)): 100 % of control | T/C (dose: 400.0 mg/kg/injection, schedule: Q04DX002 (ip), vehicle: Klucel (hydroxypropylcellulose) (HPC)): 97 % of control

CCSCCC(=O)O
T/C (dose: 50.0 mg/kg/injection, schedule: Q01DX001 (ip), vehicle: Klucel (hydroxypropylcellulose) (HPC)): 97 % of control | T/C [10]: 92 % of control | T/C [11]: 97 % of control

Cc1ccc(S(=O)(=O)/N=C2\SCc3ccccc32)cc1
T/C (dose: 12.5 mg/kg/injection, schedule: Q01DX009 (ip), vehicle: saline): 108 % of control | T/C (dose: 25.0 mg/kg/injection, schedule: Q01DX009 (ip), vehicle: saline): 105 % of control | T/C [12]: 94 % of control and 101 % of control | T/C [10]: 94 % of control | T/C [11]: 88 % of control | T/C (dose: 400.0 mg/kg/injection, schedule: Q01DX001 (ip), vehicle: Klucel (hydroxypropylcellulose) (HPC)): 98 % of control

CC1(C)OCC(=NNC(N)=O)CO1
T/C [12]: 96 % of control | T/C (dose: 100.0 mg/kg/injection, schedule: Q01DX009 (ip), vehicle: saline): 93 % of control | T/C (dose: 100.0 mg/kg/injection, schedule: Q04DX003 (ip), vehicle: saline): 90 % of control | T/C (dose: 200.0 mg/kg/injection, schedule: Q04DX003 (ip), vehicle: saline): 90 % of control

CN(C)C(=S)[S][Pb]([c]1ccccc1)([c]1ccccc1)[c]1ccccc1
T/C (dose: 5.0 mg/kg/injection, schedule: Q01DX001 (ip), vehicle: steriod suspending solution): 104 % of control | T/C (dose: 10.0 mg/kg/injection, schedule: Q01DX001 (ip), vehicle: steriod suspending solution): 100 % of control | T/C (dose: 20.0 mg/kg/injection, schedule: Q01DX001 (ip), vehicle: steriod suspending solution): 105 % of control | T/C (dose: 40.0 mg/kg/injection, schedule: Q01DX001 (ip), vehicle: steriod suspending solution): 96 % of control | T/C (dose: 80.0 mg/kg/injection, schedule: Q01DX001 (ip), vehicle: steriod suspending solution): 102 % of control

C[n+]1ccc(NC(=O)c2ccc(NC(=O)c3cccc(C(=O)Nc4ccc(C(=O)Nc5cc[n+](C)cc5)cc4)c3)cc2)cc1
T/C (dose: 1.25 mg/kg/injection, schedule: Q01DX Z (ip), vehicle: carboxymethylcellulose (CMC)): 108 % of control | T/C (dose: 2.5 mg/kg/injection, schedule: Q01DX Z (ip), vehicle: carboxymethylcellulose (CMC)): 113 % of control | T/C (dose: 5.0 mg/kg/injection, schedule: Q01DX Z (ip), vehicle: carboxymethylcellulose (CMC)): 108 % of control | T/C (dose: 10.0 mg/kg/injection, schedule: Q01DX Z (ip), vehicle: carboxymethylcellulose (CMC)): 111 % of control | T/C (dose: 20.0 mg/kg/injection, schedule: Q01DX Z (ip), vehicle: carboxymethylcellulose (CMC)): 161 % of control | T/C (dose: 40.0 mg/kg/injection, schedule: Q01DX Z (ip), vehicle: carboxymethylcellulose (CMC)): 166 % of control | T/C (dose: 62.0 mg/kg/injection, schedule: Q01DX Z (oral), vehicle: carboxymethylcellulose (CMC)): 97 % of control | T/C (dose: 80.0 mg/kg/injection, schedule: Q01DX Z (ip), vehicle: carboxymethylcellulose (CMC)): 188 % of control | T/C (dose: 125.0 mg/kg/injection, schedule: Q01DX Z (oral), vehicle: carboxymethylcellulose (CMC)): 98 % of control | T/C (dose: 160.0 mg/kg/injection, schedule: Q01DX Z (ip), vehicle: carboxymethylcellulose (CMC)): 153 % of control | T/C (dose: 250.0 mg/kg/injection, schedule: Q01DX Z (oral), vehicle: carboxymethylcellulose (CMC)): 112 % of control | T/C (dose: 500.0 mg/kg/injection, schedule: Q01DX Z (oral), vehicle: carboxymethylcellulose (CMC)): 108 % of control

O=C(O)c1cc(I)ccc1I
T/C [4]: 93 % of control | T/C [5]: 104 % of control | T/C [6]: 103 % of control
